# Results as given in PubChem BioAssay AID2060604 (Molecular Pharmacology Branch, DTP, NCI, 2025).
# Several values for one entry are separate records, joined by “and”; a condition that tells them apart may be missing. Equal values may be shown once.
# System: 379773-124-R-J2-PDC complex spheroids, viability % test/control
# Test: Anticancer human tumor 379773-124-R-J2-PDC patient-derived endometrial carcinoma cell line growth inhibition [CLK]
# Settings: for viability, T/C: stronger effect = lower value
# Method in brief: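 Patient-derived tumor cells grown as complex spheroids with HUVEC endothelial cells and mesenchymal stem cells, treated with drug combinations. Concentrations descend in half-log steps from near clinical Cmax, or from 10 microM if Cmax unknown.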
# [1] = curve of first compound, second compound 0.0316 µM
# [2] = curve of first compound, second compound 0.1 µM
# [3] = curve of first compound, second compound 0.316 µM
# [4] = curve of first compound, second compound 1 µM
# [5] = curve of first compound, second compound 3.16 µM
# [6] = curve of first compound, second compound 10 µM
# [7] = second compound 0.0316 µM, first compound 0.0316 µM
# [8] = second compound 0.0316 µM, first compound 0.1 µM
# [9] = second compound 0.0316 µM, first compound 0.316 µM
# [10] = second compound 0.0316 µM, first compound 1 µM
# [11] = second compound 0.1 µM, first compound 0.0316 µM
# [12] = second compound 0.1 µM, first compound 0.1 µM
# [13] = second compound 0.1 µM, first compound 0.316 µM
# [14] = second compound 0.1 µM, first compound 1 µM
# [15] = second compound 0.316 µM, first compound 0.0316 µM
# [16] = second compound 0.316 µM, first compound 0.1 µM
# [17] = second compound 0.316 µM, first compound 0.316 µM
# [18] = second compound 0.316 µM, first compound 1 µM
# [19] = second compound 1 µM, first compound 0.0316 µM
# [20] = second compound 1 µM, first compound 0.1 µM
# [21] = second compound 1 µM, first compound 0.316 µM
# [22] = second compound 1 µM, first compound 1 µM
# [23] = second compound 3.16 µM, first compound 0.0316 µM
# [24] = second compound 3.16 µM, first compound 0.1 µM
# [25] = second compound 3.16 µM, first compound 0.316 µM
# [26] = second compound 3.16 µM, first compound 1 µM
# [27] = second compound 10 µM, first compound 0.0316 µM
# [28] = second compound 10 µM, first compound 0.1 µM
# [29] = second compound 10 µM, first compound 0.316 µM
# [30] = second compound 10 µM, first compound 1 µM
# [31] = second compound 0.0316 µM, first compound 0.000316 µM
# [32] = second compound 0.0316 µM, first compound 0.001 µM
# [33] = second compound 0.0316 µM, first compound 0.00316 µM
# [34] = second compound 0.0316 µM, first compound 0.01 µM
# [35] = second compound 0.1 µM, first compound 0.000316 µM
# [36] = second compound 0.1 µM, first compound 0.001 µM
# [37] = second compound 0.1 µM, first compound 0.00316 µM
# [38] = second compound 0.1 µM, first compound 0.01 µM
# [39] = second compound 0.316 µM, first compound 0.000316 µM
# [40] = second compound 0.316 µM, first compound 0.001 µM
# [41] = second compound 0.316 µM, first compound 0.00316 µM
# [42] = second compound 0.316 µM, first compound 0.01 µM
# [43] = second compound 1 µM, first compound 0.000316 µM
# [44] = second compound 1 µM, first compound 0.001 µM
# [45] = second compound 1 µM, first compound 0.00316 µM
# [46] = second compound 1 µM, first compound 0.01 µM
# [47] = second compound 3.16 µM, first compound 0.000316 µM
# [48] = second compound 3.16 µM, first compound 0.001 µM
# [49] = second compound 3.16 µM, first compound 0.00316 µM
# [50] = second compound 3.16 µM, first compound 0.01 µM
# [51] = second compound 10 µM, first compound 0.000316 µM
# [52] = second compound 10 µM, first compound 0.001 µM
# [53] = second compound 10 µM, first compound 0.00316 µM
# [54] = second compound 10 µM, first compound 0.01 µM
# 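Note: compound exposure lasted seven days before the viability readout.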
# 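Throughout, for viability, T/C: 100% = DMSO vehicle control wells.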
compound,measurement,setting,value
CC(CO)NC(=O)c1cc(-c2ccc(Cl)cc2)nn(-c2cnn(C)c2)c1=O (configuration not stated) + CNC(=O)c1ccc(Nc2nc(OC3CCCC3)c3c(-c4ccc5nc(C)oc5c4)c[nH]c3n2)c(OC)c1,IC50,[1],> 10000 nM
same,IC50,[2],< 31.6 nM
same,IC50,[3],< 31.6 nM
same,IC50,[4],< 31.6 nM
same,IC50,[5],< 31.6 nM
same,IC50,[6],< 31.6 nM
same,"viability, T/C",[7],72%
same,"viability, T/C",[8],80.9%
same,"viability, T/C",[9],70.2%
same,"viability, T/C",[10],74.2%
same,"viability, T/C","second compound 0.0316 µM, first compound 3.16 µM",72.4%
same,"viability, T/C","second compound 0.0316 µM, first compound 10 µM",52.2%
same,"viability, T/C",[11],48.2%
same,"viability, T/C",[12],48.5%
same,"viability, T/C",[13],44.4%
same,"viability, T/C",[14],38.9%
same,"viability, T/C","second compound 0.1 µM, first compound 3.16 µM",36.8%
same,"viability, T/C","second compound 0.1 µM, first compound 10 µM",33.3%
same,"viability, T/C",[15],42.1%
same,"viability, T/C",[16],42.2%
same,"viability, T/C",[17],37.7%
same,"viability, T/C",[18],35.4%
same,"viability, T/C","second compound 0.316 µM, first compound 3.16 µM",43.8%
same,"viability, T/C","second compound 0.316 µM, first compound 10 µM",29.9%
same,"viability, T/C",[19],32.2%
same,"viability, T/C",[20],37.4%
same,"viability, T/C",[21],34.8%
same,"viability, T/C",[22],34.6%
same,"viability, T/C","second compound 1 µM, first compound 3.16 µM",35.6%
same,"viability, T/C","second compound 1 µM, first compound 10 µM",25.2%
same,"viability, T/C",[23],32.6%
same,"viability, T/C",[24],30%
same,"viability, T/C",[25],32.5%
same,"viability, T/C",[26],30.9%
same,"viability, T/C","second compound 3.16 µM, first compound 3.16 µM",34.5%
same,"viability, T/C","second compound 3.16 µM, first compound 10 µM",24.4%
same,"viability, T/C",[27],32%
same,"viability, T/C",[28],30.5%
same,"viability, T/C",[29],28.5%
same,"viability, T/C",[30],35.8%
same,"viability, T/C","second compound 10 µM, first compound 3.16 µM",32.4%
same,"viability, T/C","second compound 10 µM, first compound 10 µM",22.7%
CC(C)CC(NC(=O)C(Cc1ccccc1)NC(=O)c1cnccn1)B(O)O (configuration not stated),"viability, T/C",compound 0.000949 µM,83.2% and 77.4%
same,"viability, T/C",compound 0.003 µM,25.8% and 11.7%
same,"viability, T/C",compound 0.00949 µM,0.16% and 0.15%
same,"viability, T/C",compound 0.03 µM,0.22% and 0.21%
same,"viability, T/C",compound 0.0949 µM,0.19% and 0.16%
same,"viability, T/C",compound 0.3 µM,0.09% and 0.12%
same,IC50,curve of compound,1.85 nM and 1.53 nM
COc1cccc2c1C(=O)c1c(O)c3c(c(O)c1C2=O)CC(O)(C(=O)CO)CC3OC1CC(N)C(O)C(C)O1 (configuration not stated),"viability, T/C",compound 0.0316 µM,53.6% and 49.6%
same,"viability, T/C",compound 0.1 µM,9.76% and 9.37%
same,"viability, T/C",compound 0.316 µM,7.51% and 5.56%
same,"viability, T/C",compound 1 µM,3.51% and 3.77%
same,"viability, T/C",compound 3.16 µM,1.61% and 0.59%
same,"viability, T/C",compound 10 µM,0.12% and 0.15%
same,IC50,curve of compound,34.5 nM and < 31.6 nM
Cn1ncnc1[C@H]1c2n[nH]c(=O)c3cc(F)cc(c23)N[C@@H]1c1ccc(F)cc1 + CNC(=O)c1ccc(Nc2nc(OC3CCCC3)c3c(-c4ccc5nc(C)oc5c4)c[nH]c3n2)c(OC)c1,IC50,[1],13.7 nM
same,IC50,[2],< 0.316 nM
same,IC50,[3],< 0.316 nM
same,IC50,[4],< 0.316 nM
same,IC50,[5],< 0.316 nM
same,IC50,[6],< 0.316 nM
same,"viability, T/C",[31],71.4%
same,"viability, T/C",[32],64.9%
same,"viability, T/C",[33],65.7%
same,"viability, T/C",[34],56.2%
same,"viability, T/C",[7],34.6%
same,"viability, T/C",[8],14.7%
same,"viability, T/C",[35],41.1%
same,"viability, T/C",[36],35.1%
same,"viability, T/C",[37],26.6%
same,"viability, T/C",[38],26.9%
same,"viability, T/C",[11],17.6%
same,"viability, T/C",[12],13.1%
same,"viability, T/C",[39],39%
same,"viability, T/C",[40],38.5%
same,"viability, T/C",[41],32.1%
same,"viability, T/C",[42],27.2%
same,"viability, T/C",[15],17.1%
same,"viability, T/C",[16],8.94%
same,"viability, T/C",[43],39.4%
same,"viability, T/C",[44],30.3%
same,"viability, T/C",[45],27.8%
same,"viability, T/C",[46],21.5%
same,"viability, T/C",[19],14%
same,"viability, T/C",[20],7.18%
same,"viability, T/C",[47],35.4%
same,"viability, T/C",[48],31.1%
same,"viability, T/C",[49],24.1%
same,"viability, T/C",[50],25.2%
same,"viability, T/C",[23],16.6%
same,"viability, T/C",[24],10.1%
same,"viability, T/C",[51],25.4%
same,"viability, T/C",[52],30.7%
same,"viability, T/C",[53],23.5%
same,"viability, T/C",[54],19.1%
same,"viability, T/C",[27],15.1%
same,"viability, T/C",[28],9.79%
COc1c(OCCCN2CCOCC2)ccc2c3n(c(=NC(=O)c4cnc(N)nc4)nc12)CCN3 + CNC(=O)c1ccc(Nc2nc(OC3CCCC3)c3c(-c4ccc5nc(C)oc5c4)c[nH]c3n2)c(OC)c1,IC50,[1],59.5 nM
same,IC50,[2],< 3.16 nM
same,IC50,[3],< 3.16 nM
same,IC50,[4],< 3.16 nM
same,IC50,[5],< 3.16 nM
same,IC50,[6],< 3.16 nM
same,"viability, T/C",[33],81.8%
same,"viability, T/C",[34],85.6%
same,"viability, T/C",[7],65%
same,"viability, T/C",[8],37.5%
same,"viability, T/C",[9],6.4%
same,"viability, T/C",[10],2.99%
same,"viability, T/C",[37],31.6%
same,"viability, T/C",[38],29%
same,"viability, T/C",[11],25.3%
same,"viability, T/C",[12],14.5%
same,"viability, T/C",[13],4.25%
same,"viability, T/C",[14],1.91%
same,"viability, T/C",[41],34.9%
same,"viability, T/C",[42],32.7%
same,"viability, T/C",[15],19.5%
same,"viability, T/C",[16],10.1%
same,"viability, T/C",[17],3.08%
same,"viability, T/C",[18],1.56%
same,"viability, T/C",[45],38.9%
same,"viability, T/C",[46],25.7%
same,"viability, T/C",[19],17.8%
same,"viability, T/C",[20],7.48%
same,"viability, T/C",[21],1.73%
same,"viability, T/C",[22],1.03%
same,"viability, T/C",[49],28.3%
same,"viability, T/C",[50],24.1%
same,"viability, T/C",[23],15.3%
same,"viability, T/C",[24],8.87%
same,"viability, T/C",[25],2.29%
same,"viability, T/C",[26],0.59%
same,"viability, T/C",[53],22.5%
same,"viability, T/C",[54],21.5%
same,"viability, T/C",[27],16.8%
same,"viability, T/C",[28],7.19%
same,"viability, T/C",[29],1.54%
same,"viability, T/C",[30],0.67%
Cn1ncnc1[C@H]1c2n[nH]c(=O)c3cc(F)cc(c23)N[C@@H]1c1ccc(F)cc1 + CN1CCN(c2cc(C(=O)Nc3cc4cc(-c5cnn(C)c5)ccc4cn3)ccn2)CC1,IC50,[1],42.6 nM
same,IC50,[2],22.2 nM
same,IC50,[3],< 0.316 nM
same,IC50,[4],< 0.316 nM
same,IC50,[5],< 0.316 nM
same,IC50,[6],< 0.316 nM
same,"viability, T/C",[31],87.8%
same,"viability, T/C",[32],96.2%
same,"viability, T/C",[33],80.3%
same,"viability, T/C",[34],92.6%
same,"viability, T/C",[7],55.6%
same,"viability, T/C",[8],34%
same,"viability, T/C",[35],87%
same,"viability, T/C",[36],82.6%
same,"viability, T/C",[37],79.1%
same,"viability, T/C",[38],64.1%
same,"viability, T/C",[11],43.6%
same,"viability, T/C",[12],27%
same,"viability, T/C",[39],24.1%
same,"viability, T/C",[40],29.2%
same,"viability, T/C",[41],17.9%
same,"viability, T/C",[42],21.4%
same,"viability, T/C",[15],15.2%
same,"viability, T/C",[16],12.3%
same,"viability, T/C",[43],0.11%
same,"viability, T/C",[44],0.8%
same,"viability, T/C",[45],0.33%
same,"viability, T/C",[46],0.19%
same,"viability, T/C",[19],0.06%
same,"viability, T/C",[20],0.07%
same,"viability, T/C",[47],1.37%
same,"viability, T/C",[48],0.24%
same,"viability, T/C",[49],0.23%
same,"viability, T/C",[50],0.07%
same,"viability, T/C",[23],1.63%
same,"viability, T/C",[24],0.08%
same,"viability, T/C",[51],1.25%
same,"viability, T/C",[52],0.1%
same,"viability, T/C",[53],0.49%
same,"viability, T/C",[54],0.52%
same,"viability, T/C",[27],0.29%
same,"viability, T/C",[28],0.13%
